{"source": "patent US12564609B2", "about": "“Hematopoietic stem cell engraftment with a combination of agents” (The Board of Trustees of the Leland Stanford Junior …, priority 2020, dated 2026)", "test_system": "donor HSC engraftment", "assay": "Allogeneic (minor MHC-mismatched) transplantation, donor chimerism in peripheral blood", "format": "in vivo, BALB.B mice", "experimental": "A. Schematic of allogeneic transplantation protocol. BALB.B mice (H-2^b, Thy1.2, CD45.2) were recipients for B6 donors (H-2b, Thy1.1, CD45.1); ACK2 was injected 10 days prior transplantation, AZA was administered days −5 through −1 in dose 2.5 or 5 mg/kg/d, anti-CD4/CD8 were injected in dose 100 μg at days −2, −1 and at the day of transplant (day 0); recipients received 15×10^6 WBM cells or 5×10^4 LSK at d0; chimerism analysis was assessed by flow cytometry using CD45 marker to distinguish between donor and recipient total, myeloid (Gr1^+Mac1^+), B-cells (CD19^+CD3^−) and T-cells (CD19^−CD3^+). B. Multilineage donor-derived chimerism after conditioning with ACK2, AZA 2.5 mg/kg, AZA 5 mg/kg or their combination and transplantation of 15×10^6WBM cells. Chimerism levels from peripheral blood are shown at 4, 14 and 26 weeks post-HCT. Data represent mean±SD (n=4 per group). C. Multilineage donor-derived chimerism in peripheral blood at 4, 14 and 26 weeks following conditioning with single agent ACK2, single agent AZA 5 mg/kg/d or their combination and transplantation of 5×10^4 Lin^− Sca1^+c-Kit^+ cells (LSK). Data represent mean±SD (n=3-5 per group) between the donor and recipient.\nMice. […]\nBone marrow cell preparation and HSC isolation for transplantation experiments. […] Cells were filtered through 70-μm filter, lysed in ACK lysis buffer and counted on Invitrogen Countess. […]"}
{"smiles": "Nc1ncn([C@@H]2O[C@H](CO)[C@@H](O)[C@H]2O)c(=O)n1", "note": "[AZA, 5-Azacytidine]", "values": [{"measurement": "donor engraftment", "setting": "AZA 5 mg/kg/d, anti-CD4/CD8, 15×10^6 allogeneic WBM cells", "value": "successful donor engraftment was achieved"}, {"measurement": "total donor chimerism over time", "setting": "AZA alone group, 15×10^6 allogeneic WBM cells", "value": "noted to decrease"}]}
